Results as given in patent US11180468B2, “Prodrugs of urolithins and uses thereof” (Amazentis SA, priority 2013, dated 2021).
Where a name gives a salt, the structure may show the parent alone. Read-outs that look alike come from different tables or passages of the source.

Experiments:
[1] = Solubility in phosphate buffer at pH 4 at room temperature, filtered solution analysed by HPLC against DMSO standard; assay type: physicochemical; settings: phosphate buffer pH 4, room temperature; for solubility: aqueous buffer, thermodynamic from solid
Procedure: (§1) All HPLC analyses were carried out on a 5 μL sample on an Agilent 1100 series HPLC system including HPLC pump, auto injector, column oven and PDA detector with a Waters XBridgeC18, 50×2.1 mm, 5 μm column at a temperature of 40° C. and a flow rate of 0.4 mL/min using the following gradient: […]
A maximum amount of each compound was dissolved in 400 μL of phosphate buffer at pH 4 at room temperature in a filter vial (Agilent 0.45 μm PP Mini-UniPrep™). The filtered solutions were analysed by HPLC as described above. The peak area of the substance dissolved in buffer was compared to that of a standard prepared in DMSO.

[2] = Stability (degradation) in aqueous phosphate buffer solution at room temperature, HPLC percentage remaining; assay type: physicochemical
Procedure: as §1
The stability of the compounds in aqueous solution at room temperature was measured by dissolving the compounds in phosphate buffer of a pH chosen from 2, 3, 4, and/or 5. The compounds with low water solubility were first dissolved in DMSO and then diluted with phosphate buffer to contain 10% of DMSO. The samples were analysed by HPLC, as described above, at time 0 and several times thereafter. The peak area of the samples at these times were compared to the areas at t=0 to calculate the percentage remaining of the starting compound.
The solutions were prepared for each of the compounds as set out in Table 8. Plots of the percentage remaining of starting substance over time for each of the compounds measured are given in FIGS. 1-6, and t50 values (time taken for 50% of the starting compound to degrade) are given in Table 8.

[3] = Oral bioavailability: plasma concentration of Urolithin after oral administration to rats; assay type: in vivo, Sprague-Dawley rats; settings: rat
Procedure: The oral bioavailability of compounds of the invention can be assessed by orally administering a dose of compound in solution to Sprague-Dawley rats. Blood samples are collected from each rat before administration, and at intervals up to 24 hours thereafter. The blood samples are analysed for the plasma concentration of Urolithin. […] The Urolithin A was still present in the blood at a concentration of 2.6 mg/ml at 12 hours following administration in the case of the saline solution, and 1.30 mg/ml in the case of the DMSO/water solution. The Cmax and AUC of Urolithin A were higher when the compound of Example 4 was orally administered than when Urolithin A was orally administered.

[4] = Urolithin B compounds, molar basis, read-out: Solubility (mM/L)
[5] = Urolithin B compounds, read-out: Solubility
[6] = Urolithin A compounds, molar basis, read-out: Solubility (mM/L)
[7] = Urolithin A compounds, read-out: Solubility

Q: What does the source list for `NCC(=O)Oc1ccc2c(c1)oc(=O)c1ccccc12` [Example 3, 6-Oxo-6H-benzo[c]chromen-3-yl 2-aminoacetate hydrochloride]?
A: solubility [1, 4]: 4.94 mM; solubility [1, 5]: 1330 µg/mL; Degradation rate compared in words ([2]; at pH 4): degrades more slowly than Example 1; t50 (mins), time taken for 50% of the starting compound to degrade ([2]; pH 4, 0.31 mg in 1 mL, FIG. 3): 156 min

Q: With `O=c1oc2cc(O)ccc2c2ccccc12` [Urolithin B, reference compound] as the molecule, how does the solubility [1, 4] read?
A: 0.00127 mM

Q: And the solubility [1, 5]?
A: 0.27 µg/mL

Q: For `CC(C)C[C@H](N)C(=O)Oc1ccc2c(c1)oc(=O)c1ccccc12` [Example 5, 6-Oxo-6H-benzo[c]chromen-3-yl (2S)-2-amino-4-methylpentanoate hydrochloride], which “Degradation rate compared in words” value ([2]; at pH 2 and pH 5) is on record?
A: degrades more slowly than Example 1

Q: What about the “t50 (mins), time taken for 50% of the starting compound to degrade” value ([2]; pH 2, 0.2 mg in 1 mL, FIG. 6) of the same molecule?
A: 240 min

Q: And the “Increase in the rate of degradation when the pH of the solution is increased from 2 to 5” value ([2]; pH 2 to pH 5)?
A: two-fold

Q: What about the “t50 (mins), time taken for 50% of the starting compound to degrade” value ([2]; pH 5, 0.3 mg in 1 mL, FIG. 6) of the same molecule?
A: 125 min

Q: Which solubility [1, 6] does the source give for `O=c1oc2cc(O)ccc2c2ccc(O)cc12` [Urolithin A, reference compound] here?
A: 0.00057 mM

Q: What about the solubility [1, 7] of the same molecule?
A: 0.13 µg/mL

Q: For `CC(C)CC(N)C(=O)Oc1ccc2c(c1)oc(=O)c1cc(OC(=O)[C@H](N)CC(C)C)ccc12` (stereo in doubt) [Example 4, 8-{[(2R)-2-Amino-4-methylpentanoyl]oxy}-6-oxo-6H-benzo[c]chromen-3-yl (2S)-2-amino-4-methylpentanoate dihydrochloride], which solubility [1, 6] is on record?
A: 4.73 mM

Q: What about the solubility [1, 7] of the same molecule?
A: 2150 µg/mL

Q: And the “Solubility compared in words” value [1]?
A: particularly soluble compared to the parent compound

Q: What about the “Degradation rate compared in words” value ([2]; at pH 4) of the same molecule?
A: degrades more slowly than Example 3

Q: And the “t50 (mins), time taken for 50% of the starting compound to degrade” value ([2]; pH 4, 0.4 mg in 1 mL, FIG. 4)?
A: 405 min

Q: And the “AUC of Urolithin A compared with oral administration of Urolithin A” value [3]?
A: higher

Q: What about the “Cmax of Urolithin A compared with oral administration of Urolithin A” value [3] of the same molecule?
A: higher

Q: And the “Delivery of Urolithin A into the blood following oral administration, compared with oral Urolithin A” value [3]?
A: at least as effectively

Q: Which solubility [1, 6] does the source give for `NCC(=O)Oc1ccc2c(c1)oc(=O)c1cc(OC(=O)CN)ccc12` [Example 1, 8-[(2-Aminoacetyl)oxy]-6-oxo-6H-benzo[c]chromen-3-yl 2-aminoacetate dihydrochloride] here?
A: 5.64 mM

Q: And the solubility [1, 7]?
A: 1930 µg/mL

Q: And the “Solubility compared in words” value [1]?
A: more soluble than the Glycine urolithin B compound (Example 3)

Q: What about the “Degradation rate compared in words” value ([2]; at pH 4) of the same molecule?
A: degrades more slowly than Example 2

Q: And the “t50 (mins), time taken for 50% of the starting compound to degrade” value ([2]; pH 2, 0.16 mg in 1 mL, FIG. 5)?
A: 81 min

Q: And the “t50 (mins), time taken for 50% of the starting compound to degrade” value ([2]; pH 4, 0.77 mg in 1 mL, FIG. 1)?
A: 74 min

Q: And the “t50 (mins), time taken for 50% of the starting compound to degrade” value ([2]; pH 5, 0.16 mg in 1 mL, FIG. 5)?
A: 27 min

Q: For `CC(N)C(=O)Oc1ccc2c(c1)oc(=O)c1cc(OC(=O)[C@@H](C)N)ccc12` (stereo in doubt) [Example 2, 8-{[(2R)-2-Aminopropanoyl]oxy}-6-oxo-6H-benzo[c]chromen-3-yl (2S)-2-aminopropanoate dihydrochloride], which solubility [1, 6] is on record?
A: 4.86 mM

Q: What about the solubility [1, 7] of the same molecule?
A: 1800 µg/mL

Q: What about the “t50 (mins), time taken for 50% of the starting compound to degrade” value ([2]; pH 4, 0.33 mg in 0.66 mL (second time), FIG. 2) of the same molecule?
A: 31 min

Q: And the “t50 (mins), time taken for 50% of the starting compound to degrade” value ([2]; pH 4, 0.72 mg in 0.4 mL, FIG. 2)?
A: 56 min

Q: What about the “t50 (mins), time taken for 50% of the starting compound to degrade” value ([2]; pH 4, 0.94 mg in 1.8 mL (first time), FIG. 2) of the same molecule?
A: 29 min
